Experimental data as given in patent publication US8263369B2, “Compound ceramidastin, method for producing the same, and use of the same” (Microbial Chemistry Research Foundation, priority 2008, dated 2012).

Experiments:
NC/Nga mice = experiment: Therapeutic effects on atopic dermatitis-like model mice (mast cell count in skin); format: in vivo
Excerpt: Atopic dermatitis-like model mice were used to test ceramidastin for the therapeutic effects on atopic dermatitis. Specifically, the above-obtained enzyme liquid was applied onto the mice to examine the aggravation degree of corneal layer of epidermis and inflammation. In addition, the enzyme liquid and ceramidastin were applied thereonto to examine the effects on the skin brought by inhibiting neutral/alkaline ceramidase activity.
The atopic dermatitis-like model mice used were 6-week-old NC/Nga female mice (product of Charles River). The above NC/Nga mice are used as an atopic dermatitis model (Hiroi et al. Jpn. J. Pharmacol. 76, 175-183, 1998) and have an increased number of mast cells in the skin tissue.
Hair was removed in advance from the 6-week-old NC/Nga female mice under anesthesia (six mice for each group). Subsequently, absorbent cotton impregnated with acetone-ether (1:1) was pressed for 15 sec against them under anesthesia by nembutal. […]
The procedure of the above defatting and applications of ceramidase and ceramidastin was repeated 47 times in total so that it was performed twice in the morning and evening for 5 days a week. […] The thus-formed tissue pieces were stained with toluidine blue, and the number of mast cells in the tissue was counted under a microscope.

[1] = target: T1, neutral/alkaline ceramidase (Pseudomonas aeruginosa, UniProt Q9I596); experiment: Neutral/alkaline ceramidase activity inhibitory test; format: biochemical; conditions: enzyme liquid from Pseudomonas aeruginosa culture; C12-NBD Ceramide substrate; pH 8.5; 37° C., 2.5 hours; TLC fluorescence; read-out: neutral/alkaline ceramidase inhibitory activity in terms of IC50 (converted)
T1 construct: the culture liquid was sterilized through filtration; endogenous in cells; host or cells: Pseudomonas aeruginosa (human clinical isolate), sterile-filtered culture supernatant, not purified
T1 sequence (Q9I596 25-670): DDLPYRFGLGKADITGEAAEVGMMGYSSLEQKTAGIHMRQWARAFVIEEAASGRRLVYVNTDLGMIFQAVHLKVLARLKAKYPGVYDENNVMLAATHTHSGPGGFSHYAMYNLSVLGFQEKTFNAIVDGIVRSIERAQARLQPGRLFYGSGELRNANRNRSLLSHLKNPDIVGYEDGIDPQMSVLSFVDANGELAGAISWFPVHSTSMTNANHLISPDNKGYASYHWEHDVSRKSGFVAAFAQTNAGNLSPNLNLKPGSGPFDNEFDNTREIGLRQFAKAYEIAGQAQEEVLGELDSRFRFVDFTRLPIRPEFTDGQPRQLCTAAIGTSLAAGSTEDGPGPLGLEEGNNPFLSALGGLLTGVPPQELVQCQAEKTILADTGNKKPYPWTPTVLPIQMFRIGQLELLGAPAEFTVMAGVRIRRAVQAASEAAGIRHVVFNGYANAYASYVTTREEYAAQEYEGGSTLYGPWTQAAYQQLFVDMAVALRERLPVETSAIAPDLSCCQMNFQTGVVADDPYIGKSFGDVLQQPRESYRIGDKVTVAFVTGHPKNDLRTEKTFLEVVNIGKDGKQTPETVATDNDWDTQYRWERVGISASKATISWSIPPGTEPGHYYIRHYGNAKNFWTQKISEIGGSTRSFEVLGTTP
Procedure: A seed medium used was prepared as follows. Specifically, 3 g of Nissui Trypto-Soya Broth (product of Nissui Seiyaku) was dissolved in 100 mL of deionized water, and the resultant solution was dispensed into test tubes so that each test tube contained 3 mL of the solution, followed by high-pressure sterilization. Then, Pseudomonas aeruginosa (human clinical isolate) was inoculated into the seed medium in an amount of 2% by volume, and seed culturing was performed in a water bath at 37° C. and 100 rpm for 3 hours.
A synthetic medium for main culturing was prepared as follows. […]
Neutral/alkaline ceramidase activity was measured according to the method used by Okino et al. (J. Biol. Chem. 273, 14368-14373, 1998) with minor modifications. […]
The above solution (20 μL) was spotted onto a TLC plate (MERCK 25 TLC plates 20 cm×20 cm Silica gel 60 F254) and developed (chloroform:methanol ammonia (25%)=90:20:0.5, by volume). Subsequently, Image Reader FLA 5000 (product of FUJIFILM Corporation) was used to measure the fluorescence derived from the substrate, and Science Lab 2001 ImageGauge (product of FUJIFILM Corporation) was used to calculate the inhibitory rate of substrate decomposition.

CCCCCCC(O)C1C2=C(CC(C(O)C(O)C/C=C/CO)CC3=C(C(=O)OC3=O)C1O)C(=O)OC2=O (stereo not drawn) [ceramidastin]
number of mast cells in mouse skin pieces (NC/Nga mice; NC/Nga female mice, defatting + ceramidase + 0.2 mL ceramidastin 1 mg/mL on skin, 47 times, toluidine blue, ceramidase-applied 22.6±8.5, untreated 13.04±4.38): 15.5±5.2 | effect on increase in the number of mast cells (NC/Nga mice; ceramidase+ceramidastin-applied skin pieces vs ceramidase-applied skin pieces, NC/Nga mice): significantly inhibited | IC50 [1]: 12 µM
